The results in this text go back to article PMC8148385, “A robust photoluminescence screening assay identifies uracil-DNA glycosylase inhibitors against prostate cancer” (Chemical Science, 2020).

pIC50: −log10 of the molar value. Where two headings read alike, the source gives them in different places.

Test [1] deals with T1, uracil-DNA glycosylase (UDG) (Escherichia coli, UniProt P12295).
T1 construct: gene ung
The test is described as follows: TRES G-quadruplex/iridium probe UDG activity assay with commercial UDG; also fluorescence thermal shift (ca. […] °C). Format: biochemical.

For test [2], the target named is T1, uracil-DNA glycosylase (UDG). Described as above. Format: biochemical. The source holds these as a separate data set.
For test [3], the target named is T2, uracil-DNA glycosylase (UDG) (Mus musculus, UniProt P97931).
T2 construct: gene Ung; endogenous UDG in RM-1 cell lysates
T2 sequence (P97931 whole entry): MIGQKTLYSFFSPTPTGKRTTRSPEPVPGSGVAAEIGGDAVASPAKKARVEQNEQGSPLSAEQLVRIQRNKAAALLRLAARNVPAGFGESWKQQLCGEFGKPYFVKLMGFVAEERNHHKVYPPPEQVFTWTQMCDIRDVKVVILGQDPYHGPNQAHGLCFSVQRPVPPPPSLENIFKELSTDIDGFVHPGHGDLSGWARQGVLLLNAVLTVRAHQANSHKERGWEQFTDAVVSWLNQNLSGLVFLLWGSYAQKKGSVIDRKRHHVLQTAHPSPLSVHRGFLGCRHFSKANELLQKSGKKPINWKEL
The test is described as follows: CETSA in RM-1 cell lysates. Format: cell-based.

T1 sequence (P12295 2-229): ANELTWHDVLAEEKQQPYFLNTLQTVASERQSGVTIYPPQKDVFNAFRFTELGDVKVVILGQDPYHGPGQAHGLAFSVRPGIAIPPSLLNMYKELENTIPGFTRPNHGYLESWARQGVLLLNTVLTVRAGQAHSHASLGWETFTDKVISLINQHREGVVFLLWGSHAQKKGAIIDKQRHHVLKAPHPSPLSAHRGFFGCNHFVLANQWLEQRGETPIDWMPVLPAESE

With `O=[N+]([O-])c1ccc(S(=O)(=O)N2/C(=C\c3ccccc3)C(O)(c3ccccc3)c3ccccc32)cc1` (stereo not drawn) [A8], the pIC50 in test [1] is 5.72. As for `O=C(N/N=C/c1ccc([N+](=O)[O-])o1)c1ccc(O)cc1` [S13, nifuroxazide], in test [2], the pIC50 is ~5.40. For the same compound, in test [3], the “CETSA in RM-1 cell lysates” value is “in the presence of compound A8 and S13, indicating that both of them directly engaged and stabilized UDG”.

In general, pIC50 refers to −log10 of the IC50, conventionally taken in molar units.
